Data from ChEMBL document CHEMBL3885881, “DrugMatrix”.

Organism: Rattus norvegicus
Experiment: DrugMatrix - Regimen: Daily Repeat
Type: toxicity, organism-based, Sprague-Dawley
Parameters: regimen Daily Repeat, gender Male, age 6-8 weeks
Details: in vivo, po, route oral GAVAGE, vehicle .5 % CMC; for ABSOLUTE BASOPHIL / ABSOLUTE EOSINOPHIL / ABSOLUTE LYMPHOCYTE / ABSOLUTE MONOCYTE / ABSOLUTE SEGMENTED NEUTROPHIL / BASOPHIL / EOSINOPHIL / ERYTHROCYTE COUNT / HEMATOCRIT / HEMOGLOBIN / LEUKOCYTE COUNT / LYMPHOCYTE / MEAN CORPUSCULAR HEMOGLOBIN / MEAN CORPUSCULAR HEMOGLOBIN CONCENTRATION / MEAN CORPUSCULAR VOLUME / MONOCYTE / NEUTROPHIL / NUCLEATED RED BLOOD CELLS / PLATELET COUNT: tissue Blood; for ALANINE AMINOTRANSFERASE / ALBUMIN / ALKALINE PHOSPHATASE / ASPARTATE AMINOTRANSFERASE / BLOOD UREA NITROGEN / CARBON DIOXIDE / CHLORIDE / CHOLESTEROL / CREATINE PHOSPHOKINASE / CREATININE / GLUCOSE / LACTATE DEHYDROGENASE / LIPASE / PHOSPHORUS / POTASSIUM / SODIUM / TOTAL BILIRUBIN / TOTAL PROTEIN / URIC ACID: tissue Plasma
[1] = 0 mg/kg, 72 h, dose level Control, time 3 day
[2] = 0 mg/kg, 120 h, dose level Control, time 5 day
[3] = 44 mg/kg, 72 h, dose level Low, time 3 day

Brc1ccccc1 [BROMOBENZENE]
ABSOLUTE BASOPHIL [1]: 0 CELLS/uL
ABSOLUTE EOSINOPHIL [1]: 15.17 CELLS/uL
ABSOLUTE LYMPHOCYTE [1]: 10149.83 CELLS/uL
ABSOLUTE MONOCYTE [1]: 193.33 CELLS/uL
ABSOLUTE SEGMENTED NEUTROPHIL [1]: 1575 CELLS/uL
BASOPHIL [1]: 0%
EOSINOPHIL [1]: 0.17%
ERYTHROCYTE COUNT [1]: 5.53 x10E6/uL
HEMATOCRIT [1]: 34.7%
HEMOGLOBIN [1]: 12.78 G/DL
LEUKOCYTE COUNT [1]: 11.93 x10E3/uL
LYMPHOCYTE [1]: 85.5%
MEAN CORPUSCULAR HEMOGLOBIN [1]: 23.15 pg
MEAN CORPUSCULAR HEMOGLOBIN CONCENTRATION [1]: 36.9 G/DL
MEAN CORPUSCULAR VOLUME [1]: 62.82 fL
MONOCYTE [1]: 1.5%
NEUTROPHIL [1]: 12.83%
NUCLEATED RED BLOOD CELLS [1]: 0.5 /100WBC
PLATELET COUNT [1]: 994.17 x10E3/uL
ALANINE AMINOTRANSFERASE [1]: 48.17 u/L
ALBUMIN [1]: 4.37 G/DL
ALKALINE PHOSPHATASE [1]: 436.5 u/L
ASPARTATE AMINOTRANSFERASE [1]: 83.17 u/L
BLOOD UREA NITROGEN [1]: 14.67 mg/dL
CARBON DIOXIDE [1]: 30.83 mmol/L
CHLORIDE [1]: 99.17 MEQ/L
CHOLESTEROL [1]: 86.33 mg/dL
CREATINE PHOSPHOKINASE [1]: 243.33 u/L
CREATININE [1]: 0.25 mg/dL
GLUCOSE [1]: 158 mg/dL
LACTATE DEHYDROGENASE [1]: 262.33 u/L
LIPASE [1]: 11 u/L
PHOSPHORUS [1]: 12.07 mg/dL
POTASSIUM [1]: 6.52 MEQ/L
SODIUM [1]: 142.45 MEQ/L
TOTAL BILIRUBIN [1]: 0.17 mg/dL
TOTAL PROTEIN [1]: 6.25 G/DL
URIC ACID [1]: 1.42 mg/dL
ABSOLUTE BASOPHIL [2]: 0 CELLS/uL
ABSOLUTE EOSINOPHIL [2]: 0 CELLS/uL
ABSOLUTE LYMPHOCYTE [2]: 10076.67 CELLS/uL
ABSOLUTE MONOCYTE [2]: 124 CELLS/uL
ABSOLUTE SEGMENTED NEUTROPHIL [2]: 966 CELLS/uL
BASOPHIL [2]: 0%
EOSINOPHIL [2]: 0%
ERYTHROCYTE COUNT [2]: 5.57 x10E6/uL
HEMATOCRIT [2]: 33.37%
HEMOGLOBIN [2]: 12.73 G/DL
LEUKOCYTE COUNT [2]: 11.17 x10E3/uL
LYMPHOCYTE [2]: 90.33%
MEAN CORPUSCULAR HEMOGLOBIN [2]: 22.9 pg
MEAN CORPUSCULAR HEMOGLOBIN CONCENTRATION [2]: 38.18 G/DL
MEAN CORPUSCULAR VOLUME [2]: 59.97 fL
MONOCYTE [2]: 1%
NEUTROPHIL [2]: 8.67%
NUCLEATED RED BLOOD CELLS [2]: 0 /100WBC
PLATELET COUNT [2]: 1078 x10E3/uL
ALANINE AMINOTRANSFERASE [2]: 37.17 u/L
ALBUMIN [2]: 4.2 G/DL
ALKALINE PHOSPHATASE [2]: 322.17 u/L
ASPARTATE AMINOTRANSFERASE [2]: 67.67 u/L
BLOOD UREA NITROGEN [2]: 14 mg/dL
CARBON DIOXIDE [2]: 27.67 mmol/L
CHLORIDE [2]: 102.17 MEQ/L
CHOLESTEROL [2]: 67.67 mg/dL
CREATINE PHOSPHOKINASE [2]: 171.83 u/L
CREATININE [2]: 0.27 mg/dL
GLUCOSE [2]: 172 mg/dL
LACTATE DEHYDROGENASE [2]: 85.33 u/L
LIPASE [2]: 8.67 u/L
PHOSPHORUS [2]: 12 mg/dL
POTASSIUM [2]: 6.09 MEQ/L
SODIUM [2]: 144.82 MEQ/L
TOTAL BILIRUBIN [2]: 0.13 mg/dL
TOTAL PROTEIN [2]: 6.07 G/DL
URIC ACID [2]: 2.13 mg/dL
ABSOLUTE BASOPHIL [3]: 0 CELLS/uL
ABSOLUTE EOSINOPHIL [3]: 0 CELLS/uL
ABSOLUTE LYMPHOCYTE [3]: 8803 CELLS/uL
ABSOLUTE MONOCYTE [3]: 197 CELLS/uL
ABSOLUTE SEGMENTED NEUTROPHIL [3]: 1233.33 CELLS/uL
BASOPHIL [3]: 0%
EOSINOPHIL [3]: 0%
ERYTHROCYTE COUNT [3]: 5.29 x10E6/uL
HEMATOCRIT [3]: 32.6%
HEMOGLOBIN [3]: 12.17 G/DL
LEUKOCYTE COUNT [3]: 10.23 x10E3/uL
LYMPHOCYTE [3]: 86.33%
MEAN CORPUSCULAR HEMOGLOBIN [3]: 23 pg
MEAN CORPUSCULAR HEMOGLOBIN CONCENTRATION [3]: 37.3 G/DL
MEAN CORPUSCULAR VOLUME [3]: 61.67 fL
MONOCYTE [3]: 2%
NEUTROPHIL [3]: 11.67%
NUCLEATED RED BLOOD CELLS [3]: 0.33 /100WBC
PLATELET COUNT [3]: 1006 x10E3/uL
ALANINE AMINOTRANSFERASE [3]: 42.67 u/L
ALBUMIN [3]: 4.37 G/DL
ALKALINE PHOSPHATASE [3]: 351 u/L
ASPARTATE AMINOTRANSFERASE [3]: 74 u/L
BLOOD UREA NITROGEN [3]: 14 mg/dL
CARBON DIOXIDE [3]: 30 mmol/L
CHLORIDE [3]: 100.67 MEQ/L
CHOLESTEROL [3]: 85 mg/dL
CREATINE PHOSPHOKINASE [3]: 192.67 u/L
CREATININE [3]: 0.21 mg/dL
GLUCOSE [3]: 153.33 mg/dL
LACTATE DEHYDROGENASE [3]: 151.33 u/L
LIPASE [3]: 11.33 u/L
PHOSPHORUS [3]: 12.27 mg/dL
POTASSIUM [3]: 6.3 MEQ/L
SODIUM [3]: 144.5 MEQ/L
TOTAL BILIRUBIN [3]: 0.1 mg/dL
TOTAL PROTEIN [3]: 6.13 G/DL
URIC ACID [3]: 1.47 mg/dL
